Measurements reported in patent US9546401B2, “Assays and methods for selecting a treatment regimen for a subject with depression” (The General Hospital Corporation, priority 2011, dated 2017).
Like-named read-outs stand apart in the source and are kept apart here.

Tests used:
[1] = test system: SSRI-resistant outpatients with major depressive disorder (MDD);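 on Cardiovascular side effects, Frequency: adverse events recorded at every visit with the SAFTEE-SI in a 60-day double-blind sequential parallel trial of two 30-day phases, visits every 10 days, placebo as comparator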;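 on adverse side effect when administered with an SSRI: adverse events recorded at every visit with the SAFTEE-SI in a 60-day double-blind sequential parallel trial of two 30-day phases, visits every 10 days, placebo as comparator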
Excerpt: Using the sequential parallel design […] For those randomly assigned to the placebo/placebo sequence, both responders and non-responders to placebo during the first phase (n=25) remain on placebo during the second phase. […] Data from the previous double-blind, placebo-controlled study (Trial 1) can be pooled into the instant study (Trial 2) to provide a more accurate estimate of the placebo effect size, with a weighted average from the two Phases 1 (one from Trial 1 and one from Trial 2) and two Phases 2 (one from Trial 1 and one from Trial 2).
The primary efficacy measure can include the change in 17-item Hamilton Rating Scale for Depression (HAM-D-17) score. […] A remission is, for example, defined as a HAM-D-17 score less than 8 at endpoint. Secondary measures of efficacy can include change in CGI-severity, with “clinical response defined” as CGI-S of 1 or 2 at endpoint. Patients with a CGI-I score greater than 5 at any post baseline visit or a 50 percent or greater worsening of depressive symptoms from baseline to that visit are discontinued from the study. Subjects are also discontinued from the study with any emergence of suicidality, homicidality, mania, or psychosis. Additional exemplary instruments that can be administered according to the study schedule include the following: • (1) Structured Clinical Interview for DSM-IV: The SCID-I/P, administered by the clinician, proceeds by modules to diagnose the different Axis I disorders. Questions are asked exactly as written, and each is based on the individual criteria from DSM-IV. Answers are generally rated on a scale of 1-3 (1=doubtful, 2=probable, 3=definite), and, based on the number of positive answers, a diagnosis is determined by a clinician. While the entire SCID-I/P is administered at screen, the mood module is administered at each follow up visit. • (2) The MGH Antidepressant Treatment History Questionnaire (MGH-ATR): The MGH-ATR provides specific criteria for the adequate dose and adequate length of a trial for it to be considered a failure, thus allowing clinicians to systematically collect data aimed at assessing the degree of treatment-resistance of the current major depressive episode. • (3) The 28-item Hamilton Depression Scale (HAM-D-28): This version allows scoring of the HAM-D-17, 21-, 25-, and 28-item scales. This instrument is completed by the clinician by using a structured interview and defined anchor points, and aims to quantify the degree of depression over the past 7 days. The HAM-D is the most widely studied instrument for depression, and its reliability and validity are high. • (4) Clinical Global Impressions—Severity and Improvement (CGI-S, CGI-I): These two instruments are scored 1-7 by the clinician based on assessment of the patient's clinical status. They measure, based on history and scores on other instruments: a) Depressive severity (CGI-S) and b) Clinical Improvement (CGI-I). […] Safety Measurements
Data are entered and error-checked at each clinical site involved in the study. Study staff and subjects may have the option to enter self-evaluations into the system directly using DatStat Illume™. The process of data entry is supervised by the DCRP staff. Once the data set is entered and checked, analyses are conducted. Both a completer analysis of all patients finishing the trial and an intent-to-treat analysis examining all patients enrolled into the trial are used to define the severity of depression at endpoint. Examination of both study completers and all patients randomized can provide the broadest assessment of the effects of treatment in trials of such kind. The data from Trial 2 can be pooled with those from Trial 1 with the sequential parallel comparison design, to provide an estimate of the placebo response based on a larger sample size. […] Let p1, q1 be the response rates to the first administration of drug and placebo respectively and let p2, q2 be the responses rates to the second treatment.

[2] = test system: MDD patients, remitters at end of double-blind phase; details: for Relapsers (HAM-D-17 > 15) during 12-month maintenance phase: 15 mg/day as adjuvant
Procedure: During each visit, patients are administered the HAM-D-28, the CGI, the QIDS-SR, the SAFTEE-SI, the MGH-CPFQ, and the MGH-SFQ (See, e.g., Table 10 below). […] Subjects are also allowed to change their antidepressant during the course of the follow-up, if deemed appropriate. For patients who refuse the 12 months of free follow-up care, a referral to a psychiatrist is offered.

[3] = test system: SSRI-resistant outpatients with major depressive disorder (MDD); details: for Cardiovascular side effects, NNH / Gastrointestinal side effects, NNH / Infectious side effects, NNH / Miscellaneous side effects, NNH / Psychological side effects, NNH / Sexual side effects, NNH / Sleep side effects, NNH / Somatic side effects, NNH: versus placebo;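 on Cardiovascular side effects, Frequency: adverse events recorded at every visit with the SAFTEE-SI in a 60-day double-blind sequential parallel trial of two 30-day phases, visits every 10 days, placebo as comparator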;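 on adverse side effect when administered with an SSRI: adverse events recorded at every visit with the SAFTEE-SI in a 60-day double-blind sequential parallel trial of two 30-day phases, visits every 10 days, placebo as comparator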
Excerpt: The study involved the enrollment of a total of 148 patients with MDD over the course of 12 months across 10 medical centers or hospitals in the United States. […] In accordance with the sequential parallel design [51], the 60-day, double-blind treatment was divided into two phases of 30 days each, with assessments performed every 10 days.

[4] = Pooled Phase 1 and 2, 7.5 mg/day + SSRI

SMILES: CN1c2c(nc(N)[nH]c2=O)NC[C@@H]1CNc1ccc(C(=O)N[C@@H](CCC(=O)O)C(=O)O)cc1 [6(S)-5-MTHF, 6(S)-5-methyltetrahydrofolate]
- efficacy as an adjunct to the SSRIs ([1]; 7.5 mg/day): not effective
- CGI-S Mean score reduction ([1]; Phase 1, 7.5 mg/day + SSRI): −0.5
- HDRS-17 % Remission ([1]; Phase 1, 7.5 mg/day + SSRI): 11.1%
- HDRS-17 % Response ([1]; Phase 1, 7.5 mg/day + SSRI): 19.4%
- HDRS-17 Mean score reduction ([1]; Phase 1, 7.5 mg/day + SSRI): −4.3
- QIDS-SR % Remission ([1]; Phase 1, 7.5 mg/day + SSRI): 0.0%
- QIDS-SR % Response ([1]; Phase 1, 7.5 mg/day + SSRI): 25.0%
- QIDS-SR Mean score reduction ([1]; Phase 1, 7.5 mg/day + SSRI): −4.6
- CGI-S Mean score reduction ([1]; Phase 2, 7.5 mg/day + SSRI): −0.5
- HDRS-17 % Remission ([1]; Phase 2, 7.5 mg/day + SSRI): 14.2%
- HDRS-17 % Response ([1]; Phase 2, 7.5 mg/day + SSRI): 17.1%
- HDRS-17 Mean score reduction ([1]; Phase 2, 7.5 mg/day + SSRI): −3.1
- QIDS-SR % Remission ([1]; Phase 2, 7.5 mg/day + SSRI): 8.5%
- QIDS-SR % Response ([1]; Phase 2, 7.5 mg/day + SSRI): 8.5%
- QIDS-SR Mean score reduction ([1]; Phase 2, 7.5 mg/day + SSRI): −1.9
- CGI-S Mean score reduction [1, 4]: −0.53
- HDRS-17 % Remission [1, 4]: 12.7%
- HDRS-17 % Response [1, 4]: 18.3%
- HDRS-17 Mean score reduction [1, 4]: −3.70
- QIDS-SR % Remission [1, 4]: 4.3%
- QIDS-SR % Response [1, 4]: 16.8%
- QIDS-SR Mean score reduction [1, 4]: −3.25
- increase in response and remission rate versus placebo with the SSRIs ([1]; Trial 1, 15 mg/day in second phase): at least 2 fold
- response and remission rate ([1]; Trial 1, drug/drug sequence, dose increased to 15 mg/day in second phase, placebo 9%, p=0.1): 24%
- Relapsers (HAM-D-17 > 15) during 12-month maintenance phase ([2]; Trial 1, 2 remitters entering maintenance): 0
- Relapsers (HAM-D-17 > 15) during 12-month maintenance phase ([2]; Trial 2, 9 remitters entering maintenance): 0
- relapse during 12-month maintenance phase ([2]; remitters at end of double-blind phase, 15 mg/day adjunctive): did not have a relapse
- adverse side effect when administered with an SSRI ([3]; Trial 1): does not appear to cause any adverse side effect
- Cardiovascular side effects, Frequency ([3]; Trial 1, 7.5 mg + SSRI, n = 94): 0
- Cardiovascular side effects, Frequency (%) ([3]; Trial 1, 7.5 mg + SSRI, n = 94): (0%)
- Gastrointestinal side effects, Frequency ([3]; Trial 1, 7.5 mg + SSRI, n = 94): 9
- Gastrointestinal side effects, Frequency (%) ([3]; Trial 1, 7.5 mg + SSRI, n = 94): (9.6%)
- Infectious side effects, Frequency ([3]; Trial 1, 7.5 mg + SSRI, n = 94): 6
- Infectious side effects, Frequency (%) ([3]; Trial 1, 7.5 mg + SSRI, n = 94): (6.4%)
- Miscellaneous side effects, Frequency ([3]; Trial 1, 7.5 mg + SSRI, n = 94): 1
- Miscellaneous side effects, Frequency (%) ([3]; Trial 1, 7.5 mg + SSRI, n = 94): (1.1%)
- Psychological side effects, Frequency ([3]; Trial 1, 7.5 mg + SSRI, n = 94): 2
- Psychological side effects, Frequency (%) ([3]; Trial 1, 7.5 mg + SSRI, n = 94): (2.1%)
- Sexual side effects, Frequency ([3]; Trial 1, 7.5 mg + SSRI, n = 94): 0
- Sexual side effects, Frequency (%) ([3]; Trial 1, 7.5 mg + SSRI, n = 94): (0%)
- Sleep side effects, Frequency ([3]; Trial 1, 7.5 mg + SSRI, n = 94): 3
- Sleep side effects, Frequency (%) ([3]; Trial 1, 7.5 mg + SSRI, n = 94): (3.2%)
- Somatic side effects, Frequency ([3]; Trial 1, 7.5 mg + SSRI, n = 94): 9
- Somatic side effects, Frequency (%) ([3]; Trial 1, 7.5 mg + SSRI, n = 94): (9.6%)
- Cardiovascular side effects, NNH ([3]; Trial 1, 7.5 mg + SSRI): <placebo
- Gastrointestinal side effects, NNH ([3]; Trial 1, 7.5 mg + SSRI): <placebo
- Infectious side effects, NNH ([3]; Trial 1, 7.5 mg + SSRI): <placebo
- Miscellaneous side effects, NNH ([3]; Trial 1, 7.5 mg + SSRI): <placebo
- Psychological side effects, NNH ([3]; Trial 1, 7.5 mg + SSRI): <placebo
- Sexual side effects, NNH ([3]; Trial 1, 7.5 mg + SSRI): =placebo
- Sleep side effects, NNH ([3]; Trial 1, 7.5 mg + SSRI): <placebo
- Somatic side effects, NNH ([3]; Trial 1, 7.5 mg + SSRI): <placebo
- Cardiovascular side effects, Frequency ([3]; Trial 1, 15 mg + SSRI, n = 30): 2
- Cardiovascular side effects, Frequency (%) ([3]; Trial 1, 15 mg + SSRI, n = 30): (6.7%)
- Gastrointestinal side effects, Frequency ([3]; Trial 1, 15 mg + SSRI, n = 30): 3
- Gastrointestinal side effects, Frequency (%) ([3]; Trial 1, 15 mg + SSRI, n = 30): (10.0%)
- Infectious side effects, Frequency ([3]; Trial 1, 15 mg + SSRI, n = 30): 2
- Infectious side effects, Frequency (%) ([3]; Trial 1, 15 mg + SSRI, n = 30): (6.7%)
- Miscellaneous side effects, Frequency ([3]; Trial 1, 15 mg + SSRI, n = 30): 2
- Miscellaneous side effects, Frequency (%) ([3]; Trial 1, 15 mg + SSRI, n = 30): (6.7%)
- Psychological side effects, Frequency ([3]; Trial 1, 15 mg + SSRI, n = 30): 2
- Psychological side effects, Frequency (%) ([3]; Trial 1, 15 mg + SSRI, n = 30): (6.7%)
- Sexual side effects, Frequency ([3]; Trial 1, 15 mg + SSRI, n = 30): 0
- Sexual side effects, Frequency (%) ([3]; Trial 1, 15 mg + SSRI, n = 30): (0%)
- Sleep side effects, Frequency ([3]; Trial 1, 15 mg + SSRI, n = 30): 2
- Sleep side effects, Frequency (%) ([3]; Trial 1, 15 mg + SSRI, n = 30): (6.7%)
- Somatic side effects, Frequency ([3]; Trial 1, 15 mg + SSRI, n = 30): 3
- Somatic side effects, Frequency (%) ([3]; Trial 1, 15 mg + SSRI, n = 30): (10.0%)
- Cardiovascular side effects, NNH ([3]; Trial 1, 15 mg + SSRI): <placebo
- Gastrointestinal side effects, NNH ([3]; Trial 1, 15 mg + SSRI): <placebo
- Infectious side effects, NNH ([3]; Trial 1, 15 mg + SSRI): <placebo
- Miscellaneous side effects, NNH ([3]; Trial 1, 15 mg + SSRI): <placebo
- Psychological side effects, NNH ([3]; Trial 1, 15 mg + SSRI): <placebo
- Sexual side effects, NNH ([3]; Trial 1, 15 mg + SSRI): =placebo
- Sleep side effects, NNH ([3]; Trial 1, 15 mg + SSRI): <placebo
- Somatic side effects, NNH ([3]; Trial 1, 15 mg + SSRI): <placebo
